Reference: patent publication US20180112258A1, “MEDICAL USES AND METHODS FOR TREATING CANCER USING MONOPOLAR SPINDLE 1 (MPS1) KINASE INHIBITORS” (THE INSTITUTE OF CANCER RESEARCH: ROYAL CANCER HOSPITAL, priority 2015, published 2018)

Key:
[1] = test system: HCT116 cells containing MPS1 p.M600T; test: Cell viability assay, HCT116 NvR clones with MPS1 p.M600T (NvR1 etc.); conditions: for Resistance conferred by mutation p.M600T: summary table of inhibitors vs mutations
[2] = test system: HCT116 cells containing MPS1 p.C604W; test: Cell viability assay, HCT116 NvR clones with MPS1 p.C604W (NvR12 etc.)

SMILES | fold resistance in cell viability assay vs parental ([1]; p.M600T (NvR1)) [fold] | Resistance conferred by mutation p.M600T [1] | resistance / potency in cell viability assay vs parental ([2]; p.C604W (NvR12)) | Resistance conferred by mutation p.C604W ([2]; summary table of inhibitors vs mutations)
Cc1ncc(-c2ccc(Nc3cc4c(cn3)cc(-c3cnn(C)c3)n4C(=O)OC(C)C)c(F)c2)n1C [Compound 3, isopropyl 6-(4-(1,2-dimethyl-1H-imidazol-5-yl)-2-fluorophenylamino)-2-(1-methyl-1H-pyrazol-4-yl)-1H-pyrrolo[3,2-c]pyridine-1-carboxylate] | ~2 | R | more potent | 
CC(C)(C)Nc1nc(Nc2ccc(C(N)=O)cc2)cc(N)c1C#N [SNG12] |  | R |  | R
